Measurements taken from ChEMBL document CHEMBL4665898, “Semisynthetic Analogs of the Antibiotic Fidaxomicin-Design, Synthesis, and Biological Evaluation” (ACS Med Chem Lett, 2020).

System: Mycobacterium tuberculosis
Assay: Antimycobacterial activity against multi-drug resistant Mycobacterium tuberculosis after 5 days in presence of 7H9 medium by CLSI-based broth microdilution method
Type: functional
Details: 120 h, time 5 day

## CCc1c(Cl)c(O)c(Cl)c(O)c1C(=O)O[C@@H]1[C@@H](O)[C@@H](OC)[C@@H](OC/C2=C\C=C\C[C@H](O)/C(C)=C/[C@H](CC)[C@@H](O[C@@H]3OC(C)(C)[C@@H](OC(=O)C(C)C)[C@H](O)[C@@H]3O)/C(C)=C/C(C)=C/C[C@@H]([C@@H](C)O)OC2=O)O[C@H]1C
  MIC: < 8 ng/mL
